The text below walks through data of patent US20110230478A1 (Bayer ScienceCrop AG, priority 2008, published 2011).

A short description of the data set: logP by HPLC on reversed-phase columns (C 18), EEC Directive 79/831 Annex V.A8. The data set is classed as physicochemical.
Setting [1] is: values marked [b], footnote not given.
The mark [2] stands for this setting: method marker [a], footnote not given.
Where [3] appears, read: method marker [b] (compound 257: pH2.7).
The mark [4] stands for this setting: method marker [b], footnote not given, compound 68 value matches logP (pH 2.3).
[5] abbreviates: values marked [c], footnote not given.
Setting [6] is: reversed-phase HPLC column (C 18), pH 2.3, pH 2.3, 0.1% aqueous phosphoric acid and acetonitrile, read-out: logP [a].

Where a name gives a salt, the structure may show the parent alone. Read-outs that look alike come from different tables or passages of the source.

`CCN(C(C)=O)c1ccc(Nc2ncc(Cl)c(NC(C)C)n2)cc1` [Example 191]: the logP under setting [1] is 1.66[b].

As for `CC(C)Nc1nc(Nc2cccc(C#N)c2)ncc1Cl` [Example 180], the logP under setting [1] was 2.21[b].

On to `CC(C)N(C)c1nc(Nc2ccccc2)ncc1Cl.Cl` [Example 46], for which the logP under setting [2] is 2.45[a].

Take `CCCNc1nc(Nc2ccccc2)ncc1Cl` [Example 280]: the logP under setting [3] is 1.69[b].

Turning to `COCC(C)Nc1nc(Nc2ccc(O)c(C)c2)ncc1Cl` (centres unmarked) [Example 171], the logP under setting [1] is 1.39[b].

For `COCC(C)Nc1nc(Nc2cccc(S(=O)(=O)N3CCCCC3)c2)ncc1Cl` (centres unmarked) [Example 150], the logP under setting [1] is 2.77[b].

Regarding `COCC(C)Nc1nc(Nc2cccc(NC(=O)C3(C)CC3)c2)ncc1Cl` (centres unmarked) [Example 162], the logP under setting [1] was 1.78[b].

For the molecule `COCC(C)Nc1nc(Nc2ccc(O)c(C(C)=O)c2)ncc1Cl` (centres unmarked) [Example 159], the logP under setting [1] was 1.68[b].

As for `Cl.OCCNc1nc(Nc2ccccc2)ncc1Cl` [Example 53], the logP under setting [2] is 0.86[a].

With `CSc1ccc(Nc2ncc(Cl)c(NC(C)C)n2)cc1Cl` [Example 187], under setting [1], the logP is 2.91[b].

Take `CC(=O)c1ccc(Nc2ncc(Cl)c(NC(C)C)n2)cc1` [Example 200]: the logP under setting [1] was 2.06[b].

For `C=C(C)C(=O)Nc1cccc(Nc2ncc(Cl)c(NC(C)C)n2)c1` [Example 196], under setting [1], the logP is 1.66[b].

Regarding `CCCNc1nc(Nc2cccc(SC)c2)ncc1Cl` [Example 284], the logP runs as follows: under setting [3], 2.3[b]; (method marker [c]) 3.87[c];.

On to `COCC(C)Nc1nc(Nc2cccc(S(=O)(=O)N(C)C)c2)ncc1Br` (centres unmarked) [Example 72], for which the logP under setting [4] is 2.37[b].

`COCC(C)Nc1nc(Nc2ccc(OC(C)C)cc2)ncc1Cl` (centres unmarked) [Example 8]: the logP under setting [2] is 1.69[a].

With `CSCCNc1nc(Nc2ccccc2)ncc1Cl` [Example 293], the logP under setting [3] is 1.75[b].

Consider `COc1cc(Nc2ncc(Cl)c(NCCO)n2)cc(OC)c1OC.Cl` [Example 55], for which the logP under setting [2] was 1.09[a].

For the molecule `CNc1cccc(Nc2ncc(Cl)c(NC(C)C)n2)c1` [Example 292], under setting [3], the logP is 1.32[b].

For `COCC(C)Nc1nc(Nc2cccc(S(=O)(=O)N3CCOCC3)c2)ncc1Cl` (centres unmarked) [Example 29], the logP runs as follows: under setting [2], 2.1[a];; under setting [4], 2.04[b].

Take `CC(C)Nc1nc(Nc2cccc(CC#N)c2)ncc1Cl` [Example 236]: under setting [5], the logP is 1.69[c].

As for `COCC(C)Nc1nc(Nc2cccc(C)c2)ncc1Cl` (centres unmarked) [Example 225], the logP under setting [1] was 1.98[b].

For the molecule `COCC(C)Nc1nc(Nc2ccc(C(=O)OC)cc2)ncc1Cl` (centres unmarked) [Example 38, Methyl 4-({5-chloro-4-[(1-methoxypropan-2-yl)amino]pyrimidin-2-yl}amino)benzene-carboxylate hydrochloride], the chromatographic logP is, setting by setting: (reversed-phase HPLC column (C 18), method marker [c], footnote not given, read-out: logP) 3.05; (reversed-phase HPLC column (C 18), pH 2.3, method marker [a], footnote not given, read-out: logP) 2.31; under setting [6], 2.31.

With `COCC(C)Nc1nc(Nc2ccc3c(c2)OC(F)(F)C(F)(F)O3)ncc1Cl` (centres unmarked) [Example 92], the logP under setting [4] is 3.85[b].

With `CC(C)Nc1nc(Nc2ccc(O)cc2)ncc1Cl` [Example 213], under setting [1], the logP was 1.24[b].

Turning to `CC(C)CC(C)N(C)c1nc(Nc2ccccc2)ncc1Br` (centres unmarked) [Example 233], the logP (values marked [d], footnote not given) was 3.39[d].

As to `COCCNc1nc(Nc2ccccc2)ncc1Cl.Cl` [Example 61], the logP is, setting by setting: under setting [2], 1.41[a];; under setting [4], 1.41[b].

On to `COCC(C)Nc1nc(Nc2ccc3sc(C)nc3c2)ncc1Br` (centres unmarked) [Example 122], for which the logP under setting [1] was 1.87[b].

`COCC(C)Nc1nc(Nc2cc(OC)cc(OC)c2)ncc1Cl` (centres unmarked) [Example 14]: the logP under setting [2] was 1.94[a].

Consider `CCC(CO)Nc1nc(Nc2ccc(N3CCN(C(=O)OC(C)(C)C)CC3)cc2)ncc1Cl` (centres unmarked) [Example 23], for which the logP under setting [2] was 2.02[a].

With `CC(C)Nc1nc(Nc2cccc(OC(F)(F)F)c2)ncc1Cl` [Example 185], the logP under setting [1] was 3.26[b].

With `COCCN(C)c1nc(Nc2ccccc2)ncc1Cl` [Example 222, 5-Chloro-N^4-(2-methoxyethyl)-N^4-methyl-N^2-phenylpyrimidine-2,4-diamine], the chromatographic logP is 2.02 under setting [6] and 2.02 (reversed-phase HPLC column (C 18), pH 2.3, values marked [a], pH 2.3, read-out: logP).

With `CC(=O)c1cccc(Nc2ncc(Cl)c(NC(C)(C)C)n2)c1` [Example 49], the logP under setting [2] is 2.15[a].

In the case of `COCC(C)Nc1nc(Nc2ccc(N(C)C(=O)C(C)(C)C)cc2)ncc1Cl` (centres unmarked) [Example 163], the logP under setting [1] is 1.87[b].

Turning to `COCC(C)Nc1nc(Nc2ccccc2)ncc1C(F)(F)F` (centres unmarked) [Example 25], the logP was 2.96[a]; under setting [2]; 2.74[b] under setting [4]; 3.52[c]; (method marker [c], footnote not given).

Regarding `CCCN(C)c1nc(Cl)ncc1Cl` [Example V-25, 2,5-dichloro-N-methyl-N-propylpyrimidine-4-amine], the chromatographic logP under setting [6] is 3.31.

As for `CC(C)Nc1nc(Nc2ccc(NC(=O)C3(C)CC3)cc2)ncc1Cl` [Example 194], the logP under setting [1] was 1.71[b].

On to `COCC(C)Nc1nc(Nc2cccc(C(C)=O)c2)ncc1Cl` (centres unmarked) [Example 15], for which, under setting [2], the logP is 1.72[a].

For the molecule `CCC(CC)Nc1nc(Cl)ncc1Cl` [Example V-23], the chromatographic logP (pH 2.3, 0.1% aqueous phosphoric acid and acetonitrile, read-out: logP [a]) was found to be 3.39.

For `COCC(C)Nc1nc(Nc2ccc(C(=O)N(C)C)cc2)ncc1Cl` (centres unmarked) [Example 148], the logP under setting [1] is 1.51[b].

With `COCC(C)Nc1nc(Nc2ccc(OC(F)(F)C(F)F)cc2)ncc1Cl` (centres unmarked) [Example 158], the logP under setting [1] is 2.61[b].

`CC(CO)Nc1nc(Nc2ccccc2)ncc1Cl` (centres unmarked) [Example 223]: the logP (values marked [a], pH 2.3) was 1.04[a].

As to `COCC(C)Nc1nc(Nc2ccc(SC)c(Cl)c2)ncc1Br` (centres unmarked) [Example 111], under setting [4], the logP was 2.99[b].

In the case of `CC(C)(C)CNc1nc(Cl)ncc1Cl` [Example V-32, 2,5-dichloro-N-(2,2-dimethylpropyl)pyrimidine-4-amine], the chromatographic logP under setting [6] was found to be 3.44.

In the case of `COCC(C)Nc1nc(Nc2cc(Cl)cc(Cl)c2)ncc1Br` (centres unmarked) [Example 114], the logP under setting [4] is 4.32[b].

`CC(=O)c1cccc(Nc2ncc(Cl)c(NCCO)n2)c1.Cl` [Example 56]: the logP under setting [2] was 1.06[a].

Consider `CCC(=O)N(C)c1cccc(Nc2ncc(Cl)c(NC(C)C)n2)c1` [Example 290], for which the logP reads like this: under setting [3], 1.76[b]; (method marker [c]) 2.89[c];.

On to `COCC(C)Nc1nc(Nc2ccc(C(=O)NC(C)(C)C)cc2)ncc1Cl` (racemic) [Example 137], for which the logP under setting [1] was 2.06[b].

Take `CNC(=O)Oc1cccc(Nc2ncc(Br)c(NC(C)COC)n2)c1` (racemic) [Example 130]: the logP under setting [1] was 1.56[b].

`CC(Nc1nc(Nc2ccccc2)ncc1Cl)[Si](C)(C)C` (centres unmarked) [Example 291]: under setting [3], the logP is 2.66[b].

Consider `COCCNc1nc(Nc2cc(OC)c(OC)c(OC)c2)ncc1Cl` [Example 1], for which the logP is 1.45[a]; under setting [2] and 1.45[b] under setting [4].

`CC(=O)c1cccc(Nc2ncc(Cl)c(N(C)C)n2)c1.Cl` [Example 42]: the logP under setting [2] was 1.84[a].

Take `COCCNc1nc(Nc2ccc(C(C)C)cc2)ncc1Cl` [Example 11]: the logP under setting [2] is 2.09[a].

`COCC(C)Nc1nc(Nc2cc(OC)c(OC)c(OC)c2)ncc1C(F)(F)F` (centres unmarked) [Example 24]: the logP under setting [4] is 2.46[b].

With `COCC(C)Nc1nc(Nc2ccc(OC)nc2)ncc1Br` (centres unmarked) [II-1], where the note is “LC-MS, pH 2.7, 0.1% aqueous formic acid and acetonitrile”, the “logP [b]” value was 1.52[b]. Besides, the “logP [a]” value (pH 2.3, 0.1% aqueous phosphoric acid and acetonitrile) is 1.53[a];.

With `C=CCNc1nc(Nc2ccccc2)ncc1Cl` [Example 286], the logP is 1.64[b] under setting [3] and 3.1[c]; (method marker [c]).

For `CC(C)Nc1nc(Nc2cccc(CS(=O)(=O)NCc3ccccc3)c2)ncc1Cl` [Example 251], the logP runs as follows: under setting [3], 2.18[b]; (method marker [c]) 3.35[c];.

As for `CCN(C)c1nc(Nc2ccccc2)ncc1Cl` [Example 241], the logP is, setting by setting: under setting [1], 2.11[b]; under setting [5], 3.85[c];.

As for `CC(C)(C)CNc1nc(Nc2ccccc2)ncc1Cl` [Example 273], the logP under setting [3] was 2.48[b].

As for `CCCCN(C)c1nc(Nc2cccc(SC)c2)ncc1Cl` [Example 282], under setting [3], the logP is 3.9[b].

Where the note is “pH 2.3, logP [a]”, `CC(C)Nc1nc(Cl)ncc1Cl` [Example V-9, 2,5-dichloro-N-(propan-2-yl)pyrimidine-4-amine] showed a chromatographic logP of 2.46.

In the case of `CC(C)(C)OC(=O)N1CCN(c2ccc(Nc3ncc(Cl)c(NC4CCCCC4)n3)cc2)CC1` [Example 264], the logP under setting [3] is 2.95[b].

As to `CCC(CO)Nc1nc(Cl)ncc1Cl` (centres unmarked) [Example V-4, 2,5-dichloro-N-(1-hydroxybutan-2-yl)pyrimidine-4-amine], under setting [6], the chromatographic logP amounted to 1.65.

With `CC(C)Nc1nc(Nc2cccc(OC(F)(F)C(F)F)c2)ncc1Cl` [Example 211], the logP under setting [1] is 2.88[b].

Turning to `CC(C)Nc1nc(Nc2cccc(Cn3cccn3)c2)ncc1Cl` [Example 298], the logP under setting [3] was 1.7[b].

For the molecule `CCOCCN(C)c1nc(Nc2ccccc2)ncc1Br` [Example 237], the logP by setting is: under setting [1], 2.55[b]; under setting [5], 3.95[c];.

Consider `CC(C)Nc1nc(Nc2cccc(C(F)F)c2)ncc1Cl` [Example 281], for which the logP under setting [3] was 2.4[b].

As for `COCC(C)Nc1nc(Nc2ccc(NC=O)cc2)ncc1Cl` (racemic) [Example 138], the logP under setting [1] is 1.28[b].

For the molecule `CC(C)Nc1nc(Nc2ccc(NC(=O)C(F)(F)F)cc2)ncc1Cl` [Example 193], the logP under setting [1] was 1.93[b].

On to `CC(C)Nc1nc(Nc2ccc(S(C)(=O)=O)cc2)ncc1Cl` [Example 186], for which, under setting [1], the logP was 1.86[b].

As to `CCCN(C)c1nc(Nc2ccccc2)ncc1Cl` [Example 272], the logP runs as follows: under setting [3], 2.55[b]; (method marker [c]) 4.35[c];.
